# According to US20110288114A1, “COMPOSITIONS FOR THE TREATMENT OF FIBROTIC DISEASES OR CONDITIONS” (Kinemed, Inc., priority 2008, published 2011):
# Entries after “also recorded” stand apart in the source; their conditions may differ.
# Columns and labels:
# [1] = as alternative to corticosteroid and/or immunosuppressive drugs; cited from earlier work
# TGF-β signaling = conditions: low concentrations of paclitaxel; nude mouse model of scleroderma; cited from earlier work
# [2] = tested on: collagen synthesis in the lung (bleomycin-induced lung fibrosis); assay: Bleomycin-induced lung fibrosis: fractional synthesis of collagen (2H2O labeling, GC/MS of OHP); format: in vivo, mice
# Experimental: Bleomycin administration induces at least a three fold increase in the fractional synthesis of OHP as measured by GC/MS. Inhibition or reversal of the fibrotic response is determined by a reduction in OHP synthesis when compared with the bleomycin-vehicle control.
# Animals: Female C57BU6 mice, 10 weeks of age at the start of the study were used. Food and water were available ad lib for the study duration. Study groups are as stated in table 1.
# Protocol: Bleomycin (Sigma-Aldrich) was dissolved in sterile saline at a concentration of 1.05 U/ml. 30 μl of the bleomycin solution or the same volume of vehicle (sham control) was installed into the trachea of female C57BI/6 mice by the trans-oral route to yield a dose of 1.5 U/kg of bleomycin. […] Label (8% ^2H2O in drinking water) and drug administration continued for the 2 week study duration.
# On the day following the last drug administration, the mice were placed under heavy anesthesia and blood was collected via cardiac puncture. The lung was perfused with isotonic saline, removed and weighed. The lung was homogenized with a MiniBeadbeater-96™ (Biospec, Bartlesville, Okla.) bead mill, and the total volume of homogenate was determined. The homogenate was subjected to acetone precipitation in order to obtain the total tissue protein for OHP assessment. The proteins were hydrolyzed by incubation in HCl, dried under vacuum and then suspended in a solution of 50% acetonitrile, 50 mM K2HPO4 and pentafluorobenzyl bromide before incubation. Derivatives were extracted into ethyl acetate, and the top layer was removed and dried by vacuum centrifugation. […] The derivatized OHP was analyzed by GC/MS, performed in the negative chemical ionization mode. […] Incorporation of ^2H into OHP was calculated as the molar fraction of molecules with one excess mass unit above the natural abundance fraction (EM1). Fractional synthesis (f) of collagen was calculated as the ratio of the EM1 value in protein-bound OHP to the maximal value possible at the body ^2H2O enrichment present. […]
# [3] = tested on: total collagen (OHP) content of the lung (bleomycin-induced lung fibrosis); assay: Bleomycin-induced lung fibrosis: total OHP content of lung by chloramine-t assay; format: in vivo, mice; conditions: noscapine for 2 weeks after bleomycin 1.5 U/kg
# Experimental: Protocol: Bleomycin (Sigma-Aldrich) was dissolved in sterile saline at a concentration of 1.05 U/ml. 30 μl of the bleomycin solution or the same volume of vehicle (sham control) was installed into the trachea of female C57BI/6 mice by the trans-oral route to yield a dose of 1.5 U/kg of bleomycin. […] Label (8% ^2H2O in drinking water) and drug administration continued for the 2 week study duration. […] In addition to the GC/MS analysis, the absolute amount of collagen in the samples was determined by a chloramine-t assay of total OHP, a well established colorimetric method for determining OHP content. Samples of the original homogenate (400 μl) were hydrolyzed (HCl, 500 μl), dried, re-suspended in 1 ml of assay buffer, and incubated overnight. 150 μl of the suspension was pipetted into wells of a 96 well plate. 75 μl of chloramine-t was added to the well and the plate was incubated at room temperature for 20 min. Dimethylaminobenzaldehyde (75 μl) was then added to each well. The plate was incubated at 60° C. for 15 min before being read on a microquant (Bio-Tek Instruments, Inc. MQX200) at 540 nm. OHP standards were prepared and analyzed with the samples. Results were analyzed using GraphPad Prism to interpolate values from the standard curve. […]
# [4] = tested on: α-SMA positive lung cells (activated myofibroblasts); assay: Bleomycin-induced lung fibrosis: histology of αSMA positive lung cells; format: in vivo, mice; conditions: relative to vehicle+bleomycin control; 2 weeks after bleomycin; FIG. 4
# Experimental: Protocol: Bleomycin (Sigma-Aldrich) was dissolved in sterile saline at a concentration of 1.05 U/ml. 30 μl of the bleomycin solution or the same volume of vehicle (sham control) was installed into the trachea of female C57BI/6 mice by the trans-oral route to yield a dose of 1.5 U/kg of bleomycin. […] Label (8% ^2H2O in drinking water) and drug administration continued for the 2 week study duration. […] The differentiation of fibroblastic cells into myofibroblasts which express α-smooth muscle actin (α-SMA) is a major process the development of fibrosis. αSMA is a well recognized indicator of activated myofibroblasts. A small sample (5 to 20 mg) of the lung was excised from the center of the left lobe, immediately fixed in formalin, and sent for histological examination (Premier Laboratory LLC, Longmont Colo., USA). Briefly, paraffin embedded slides were prepared from the formalin-fixed tissue and then stained using an antibody for αSMA. Prepared slides were scanned, photographed, and subsequently analyzed for the presence of αSMA positive cells using ImageScope software (Aperio Technologies Inc., Vista Ca). Statistics: An analysis of variance followed by a Dunnett's test for comparison with drug vehicle/bleomycin control was used to analyze the data (SigmaStat). Data were considered significant at p<0.05.
# [5] = tested on: collagen synthesis in the liver (ANIT-induced liver fibrosis); assay: ANIT-induced liver fibrosis: fractional synthesis of collagen (2H2O labeling, GC/MS of OHP); format: in vivo, mice; conditions: for amount of newly synthesized collagen in the liver: separate study
# Source text: Alpha-Naphthylisothiocyanate (ANIT) is a hepatotoxicant that damages biliary cells and hepatocytes. Prolonged exposure to ANIT induces bile duct hyperplasia and biliary fibrosis, as well as liver injury. ANIT is conjugated with glutathione in hepatocytes and secreted into the bile (reviewed in Xu, 2004). However, the ANIT-glutathione complexes are unstable and rapidly dissociate in the bile causing the hepatocytes to reuptake the drug. Recycling can continue for many rounds, delaying ANIT elimination and depleting glutathione. In addition to its direct cytotoxic effects, ANIT also induces a hepatic inflammatory response that contributes to the tissue injury. Chronic administration of ANIT to rodents results in a significant increase in liver collagen and is used as an animal model of liver fibrosis (Xu et al, 2004). […] Inhibition or reversal of the fibrotic response is determined by a reduction in collagen synthesis when compared with the ANIT-vehicle control.
# Subjects: Female C57BU6 mice, 10 weeks of age at the start of the study were used. The animals were housed in groups of 5, under standard laboratory conditions, with food and water available ad lib. Study groups are as stated in table 2 (po signifies oral gavage).
# Mice were fed a diet adulterated with 0.05% (w/w) ANIT or a control diet for two weeks in order to induce a fibrotic response in the liver. The mice were labeled with 8% ^2H2O (Spectra Stable Isotopes, Columbia, Md.) beginning on the day that ANIT administration began.
# On the day following the last drug administration, mice were placed under heavy anesthesia, and the liver was perfused and removed. Liver tissue was homogenized with a MiniBeadbeater 96™ bead mill (Biospec, Bartlesville, Okla.) followed by acetone precipitation and vacuum drying. Proteins were hydrolyzed in 6 N HCl (110° C., 16 hours), dried under vacuum and suspended in 1 mL 50% acetonitrile, 50 mM K2HPO4, pH 11. Pentafluorobenzyl bromide was added before the sealed mixture was incubated (100° C.; 1 hour) and extracted into ethyl acetate. The top layer was removed and dried by addition of solid Na2SO4 followed by vacuum centrifugation. Samples were incubated with 50 μL methyl imidazole and 100 μL MTBSTFA, (100° C. for 30 min). The derivative was extracted in water/petroleum ether and dried with Na2SO4. Selected ion monitoring was at mass-to-charge ratios of 445, 446, and 447 for the OH-proline derivatives. Mole % excess M1 enrichment (EM1) and fractional synthesis (f) are calculated.
# Statistics: An analysis of variance followed by a Dunnett's test for comparison with ANIT/vehicle control was used to analyze the data (SigmaStat). Data were considered significant at p<0.05.
# [6] = tested on: OHP content of the liver (ANIT-induced liver fibrosis); assay: ANIT-induced liver fibrosis: absolute amount of OHP in liver by chloramine-t assay; format: in vivo, mice
# Experimental: Mice were fed a diet adulterated with 0.05% (w/w) ANIT or a control diet for two weeks in order to induce a fibrotic response in the liver. The mice were labeled with 8% ^2H2O (Spectra Stable Isotopes, Columbia, Md.) beginning on the day that ANIT administration began. […] In addition to the GC/MS analysis, the absolute amount of OHP in the samples was determined by a chloramine-t assay as described above for the bleomycin studies. Statistics: An analysis of variance followed by a Dunnett's test for comparison with ANIT/vehicle control was used to analyze the data (SigmaStat). Data were considered significant at p<0.05.
# [7] = tested on: liver collagen content (ANIT-induced liver fibrosis); assay: ANIT-induced liver fibrosis: histological collagen content (Masson's Trichrome stain); format: in vivo, mice; conditions: noscapine administered with ANIT, FIG. 10
# Experimental: Mice were fed a diet adulterated with 0.05% (w/w) ANIT or a control diet for two weeks in order to induce a fibrotic response in the liver. The mice were labeled with 8% ^2H2O (Spectra Stable Isotopes, Columbia, Md.) beginning on the day that ANIT administration began. […] A small sample (75 to 80 mg) of the liver was excised from the lateral right lobe, immediately fixed in formalin, and sent for histological examination (Premier Laboratory LLC, Longmont Colo., USA). Briefly, paraffin embedded slides were prepared from the formalin-fixed tissue and then treated with Masson's Trichrome stain for collagen distribution. Prepared slides were scanned, photographed, and subsequently analyzed for collagen content using ImageScope software (Aperio Technologies Inc., Vista Ca). Statistics: An analysis of variance followed by a Dunnett's test for comparison with ANIT/vehicle control was used to analyze the data (SigmaStat). Data were considered significant at p<0.05.
smiles,measurement,setting,value
"COc1cc2c(c(OC)c1OC)-c1ccc(OC)c(=O)cc1[C@@H](NC(C)=O)CC2 [Colchicine, colchicine]",safety and efficacy in the treatment of IPF,[1],"safer, but not effective"
"CC(=O)O[C@H]1C(=O)[C@@]2(C)[C@H]([C@H](OC(=O)c3ccccc3)[C@]3(O)C[C@H](OC(=O)[C@H](O)[C@@H](NC(=O)c4ccccc4)c4ccccc4)C(C)=C1C3(C)C)[C@]1(OC(C)=O)CO[C@@H]1C[C@@H]2O [Paclitaxel, paclitaxel]",Smad2 and Smad3 phosphorylation in SSc grafts,TGF-β signaling,markedly suppressed Smad2 and Smad3 phosphorylation
same,collagen deposition in SSc grafts,TGF-β signaling,decreased collagen deposition
COc1ccc2c(c1OC)C(=O)O[C@@H]2[C@H]1c2c(cc3c(c2OC)OCO3)CCN1C [noscapine],"bleomycin-induced increase of collagen synthesis (fractional synthesis, percent labeled OHP, f)","[2]; noscapine 300 mg/kg po (oral gavage) for 2 weeks from the day of bleomycin, FIG. 5",blocked the bleomycin-induced increase of collagen synthesis
same,"percent of newly synthesized collagen (% new OHP, f)","[2]; noscapine in diet (2 g/kg food, approx. 300 mg/kg) for 2 weeks from the day of bleomycin, FIG. 6","tended to reduce the % new OH—P, but the effect was not statistically significant; also recorded: tended to reduce the percent of newly synthesized collagen"
same,"bleomycin-induced increase of collagen synthesis (fractional synthesis, percent labeled OHP, f)","[2]; noscapine ip (10, 30, 100 mg/kg) for 2 weeks from the day of bleomycin 1.5 U/kg trans-oral, FIG. 1",blocked the bleomycin-induced increase of collagen synthesis
same,total collagen (OHP) content of the lung,"[3]; chloramine-t assay, FIG. 2",blocked by noscapine in a dose related manner
same,absolute amount of newly synthesized collagen in the lung (f times total OHP content),[3]; FIG. 3,significantly decreased
same,number of alpha smooth muscle actin (αSMA) positive cells in lung,[4],significantly reduced the number of myofibroblasts activated by bleomycin; also recorded: significantly decreased the number of alpha smooth muscle actin (αSMA) positive cells
same,"ANIT-induced elevation of new OHP (percent labeled OHP, f) in the liver","[5]; noscapine at 30 and 100 mg/kg po, p<0.05 vs ANIT/vehicle, FIG. 7",significantly reduced the ANIT-induced elevation of OHP
same,"percent of newly synthesized collagen in the liver (percent labeled OHP, f)","[5]; noscapine po (oral gavage) 10, 30, 100 mg/kg with 0.05% ANIT diet for 2 weeks, FIG. 7",dose dependently reduced the percent of newly synthesized collagen
same,amount of newly synthesized collagen in the liver,"[5]; noscapine 300 mg/kg by oral gavage once per day with ANIT, FIG. 12",tended to decrease the amount of newly synthesized collagen
same,amount of newly synthesized collagen in the liver,"[5]; noscapine 300 mg/kg in the diet (2 g/kg food) with ANIT, FIG. 11",tended to decrease the amount of newly synthesized collagen
same,total amount of OHP in the whole liver,"[6]; chloramine-t assay, noscapine po with ANIT for 2 weeks, vs ANIT plus vehicle control, FIG. 8",significantly reduced the ANIT-induced elevation of OHP content
same,"ANIT-induced elevation of collagen synthesis, absolute (f x [OHP]) in the liver","[6]; noscapine at 30 and 100 mg/kg po, p<0.05 vs ANIT/vehicle, FIG. 9",significantly reduced the ANIT-induced elevation of collagen synthesis
same,amount of newly synthesized collagen in the whole liver (f x [OHP]),"[6]; noscapine po with ANIT for 2 weeks, vs ANIT plus vehicle control, FIG. 9",significantly reduced
same,histologically determined collagen content of liver,[7],significantly decreased ANIT-induced collagen content; also recorded: significant decrease in collagen content
